pIC50: −log10 of the molar value. Counter-ions that a name gives are not always drawn. Like-named read-outs stand apart in the source and are kept apart here.
System: amyloid β production in transfected H4 (human neuroglioma) cells stably expressing APP constructs
Test: In vitro cell-based assay of inhibitors of amyloid β production (ELISA)
Procedure: In Vitro Cell-Based Assay of Inhibitors of Amyloid β Production
Transfected H4 (human neuroglioma) cells stably expressing APP constructs are used to identify and assess inhibitors of Aβ production. In brief, cells lines are exposed to compounds, and the effect of each compound on amyloid β production is determined by measuring the amount of amyloid β produced using an enzyme linked immunosorbent assay (ELISA) that detects amyloid β (see, for example, Seubert et al., (1992) Nature, 359:325-327).
Transfected cells that stably express wild-type and variant forms of APP are plated in 96-well format plates at a density sufficient for the rapid detection of the secreted amyloid β (experimentally predetermined for a particular stable cell population). Cells are plated at least six hours prior to the introduction of the test compound at which time the growth medium is replaced by fresh medium containing the compound to be tested. All synthetic agents are initially screened at doses ranging from 10-100 μM. Higher dilutions of agents can be used to minimize cytotoxicity. Incubation of cells with a test compound continues for approximately 16 hours at which time aliquots of medium from each well are removed and assayed for amyloid β.
ELISA is carried out by methods known in the art (see, e.g., Haass et al., Antibodies: A Laboratory Manual, Harlow and lane, Editors, Cold Spring Harbor Press, 1988) The capture antibody is typically a mouse monoclonal (IgG1/kβ-APPa) which recognizes the carboxyl terminal epitope of amyloid β. The specificity of the capture antibody insures measurement of amyloid β without interference from other secreted APP fragments that share amino acid sequence (amyloid β 1-16) homology with amyloid β but lack the carboxy-terminal region. The detecting antibody is typically an affinity-purified rabbit polyclonal antibody that is specific for the amino terminus of amyloid β.
Results from test compounds are compared to results obtained when cells are treated with control agents. Amyloid β levels are determined by comparison to a standard curve obtained by subjecting a range of known amounts of amyloid β to the ELISA.
A compound is identified as “active” when it inhibits cellular production of amyloid β relative to levels in control samples by at least 50% at the initial tested concentration without significant cytotoxicity. Active compounds are then assayed in dose-response experiments to determine the lowest dose of compound necessary for inhibition of amyloid β production.

[1] = transfected H4 cells stably expressing APP, approximately 16 hours incubation, amyloid β in medium by ELISA, read-out: ACTIVITY (IC50, inhibition of amyloid β production)
[2] = transfected H4 cells stably expressing APP, approx. 16 h incubation, amyloid β in medium by ELISA, read-out: ACTIVITY (IC50, inhibition of amyloid β production)
[3] = Homo sapiens, 16 h, transfected H4 cells stably expressing APP constructs, approximately 16 hours incubation, amyloid β in medium by ELISA, read-out: ACTIVITY (IC50, inhibition of amyloid β production)
[4] = Table B, transfected H4 cells stably expressing APP, approximately 16 hours incubation, amyloid β in medium by ELISA, read-out: ACTIVITY (inhibitory concentration IC50, inhibition of amyloid β production)
[5] = Homo sapiens, 16 h, Table B, transfected H4 cells stably expressing APP, approximately 16 hours incubation, amyloid β in medium by ELISA, read-out: ACTIVITY (inhibitory concentration IC50, inhibition of amyloid β production)

Row | pIC50 [4] | Compound | also measured
1 | ≥ 7.60 | C[C@H](O)CCOC(c1ccccc1)(c1ccccc1)c1ccccc1 [Example 25, (S)-4-triphenylmethylyloxy-2-butanol] | –
2 | ≥ 7.60 | C[C@H](CCOC(c1ccccc1)(c1ccccc1)c1ccccc1)N(c1cc(Cl)ccc1Cl)S(=O)(=O)c1ccc(Cl)cc1 [Example 26, 4-Chloro-N-(2,5-dichlorophenyl]-N-[1(R)-methyl-(3-triphenylmethyloxy)-propyl]benezenesulfonamide] | –
3 | ≥ 7.60 | C[C@H](O)CCCC(=O)OC(C)(C)C [Example 34, 1,1-Dimethylethyl (5S)-5-hydroxyhexanoate] | –
4 | ≥ 7.60 | C[C@H](CCCC(=O)OC(C)(C)C)N(c1cc(Cl)ccc1Cl)S(=O)(=O)c1ccc(Cl)cc1 [Example 35, 1,1-dimethylethyl(5R)-5-[(2,5-dichlorophenyl)-[(4-chlorophenyl)sulfonyl]-amino]hexanoate] | –
5 | ≥ 7.60 | C[C@H](CCCC(=O)O)N(c1cc(Cl)ccc1Cl)S(=O)(=O)c1ccc(Cl)cc1 [Example 36, (5R)-5-[(2,5-dichlorophenyl][(4-chlorophenyl)sulfonyl]-amino]hexanoic Acid] | –
6 | ≥ 7.60 | C[C@H](CCCS(=O)(=O)Cl)N(c1cc(Cl)ccc1F)S(=O)(=O)c1ccc(Cl)cc1 [Example 43, (4R)-4-[N-[5-chloro-2-fluorophenyl][(4-chlorophenyl)sulfonyl]amino]pentylsulfonyl Chloride] | –
7 | ≥ 7.60 | c1cn(CCCNCC2CC2)cn1 [Example 58, N-cyclopropylmethyl-3-(1H)-imidazolylpropylamine] | –
8 | ≥ 7.60 | CS(=O)(=O)C[C@H]1CCCN1 [Example 68] | –
9 | ≥ 7.60 | COC(=O)C[S+]([O-])C[C@@H](C)N(c1cc(Cl)ccc1Cl)S(=O)(=O)c1ccc(Cl)cc1 (stereo partly drawn) [Example 178, Methyl(5R)-5-[(2,5-dichlorophenyl)[(4-chlorophenyl)sulfonyl]amino]-3-thiohexanoate,3 Oxide] | –
10 | ≥ 7.60 | COC(=O)CSCC[C@@H](C)N(c1cc(Cl)ccc1Cl)S(=O)(=O)c1ccc(Cl)cc1 [Example 179, Methyl(6R)-6-[(2,5,dichlorophenyl)[(4-chlorophenyl)sulfonyl]amino]-3-thioheptanoate] | –
11 | ≥ 7.60 | C[C@H](CCSCC(=O)O)N(c1cc(Cl)ccc1Cl)S(=O)(=O)c1ccc(Cl)cc1 [Example 180, (6R)-6-[(2,5-dichlorophenyl)[(4-chlorophenyl)sulfonyl]amino]-3-thioheptanoic Acid] | –
12 | 7.30 to 7.60 | C[C@H](CC[S+]([O-])CC(=O)O)N(c1cc(Cl)ccc1Cl)S(=O)(=O)c1ccc(Cl)cc1 (some centres unmarked) [Example 182] | –
13 | 7.30 to 7.60 | C[C@H](CCS(=O)(=O)CC(=O)O)N(c1cc(Cl)ccc1Cl)S(=O)(=O)c1ccc(Cl)cc1 [Example 183, (6R)-6-[(2,5-dichlorophenyl)[(4-chlorophenyl)sulfonyl]amino]-3-thioheptanoic Acid, 3,3 Dioxide] | –

Second part, the compound before the results:

Row | Compound | pIC50 [4] | also measured
14 | 4-chloro-N-{3-[2-(1-{[(4-chlorophenyl)sulfonyl]-2,5-difluoroanilino}ethyl)phenoxy]propyl}-2-nitrobenzamide [Example 947] | – | pIC50 [1]: < 6.30
15 | 4-chloro-N-{3-[2-(1-{[(4-chlorophenyl)sulfonyl]-2,5-difluoroanilino}ethyl)phenoxy]propyl}-N-methyl-2-nitrobenzamide [Example 636] | – | pIC50 [2]: 6.30 to 7.00
16 | 4-chloro-N-{3-[2-(1-{[(4-chlorophenyl)sulfonyl]-2,5-difluoroanilino}ethyl)phenoxy]propyl}-N-methyl-3-nitrobenzenesulfonamide [Example 807] | – | pIC50 [1]: 6.30 to 7.00
17 | 4-chloro-N-{3-[2-(1-{[(4-chlorophenyl)sulfonyl]-2,5-difluoroanilino}ethyl)phenoxy]propyl}-N-methylbenzamide [Example 722] | – | pIC50 [2]: 6.30 to 7.00
18 | 4-chloro-N-{3-[2-(1-{[(4-chlorophenyl)sulfonyl]-2,5-difluoroanilino}ethyl)phenoxy]propyl}benzamide [Example 811] | – | pIC50 [1]: 6.30 to 7.00
19 | 4-chloro-N-{3-[2-({[(4-chlorophenyl)sulfonyl]-2,5-difluoroanilino}methyl)phenoxy]propyl}-N-methylbenzamide [Example 970] | – | pIC50 [1]: < 6.30
20 | 4-tert-butyl-N-{3-[2-(1-{[(4-chlorophenyl)sulfonyl]-2,5-difluoroanilino}ethyl)phenoxy]propyl}benzamide [Example 274] | – | pIC50 (transfected H4 cells stably expressing APP, approximately 16 hours incubation, amyloid β in medium by ELISA, Table B, read-out: ACTIVITY (IC50, inhibition of amyloid β production)): 7.30 to 7.60
21 | 5-[2-((1R)-1-{[(4-chlorophenyl)sulfonyl]-2,5-difluoroanilino}ethyl)-5-fluorophenyl]butanoic acid [Example 1070] | – | pIC50 [1]: < 6.30
22 | C[C@H](CCCNC(=O)C(C)(C)C)N(c1cc(Cl)ccc1Cl)S(=O)(=O)c1ccc(Cl)cc1 (stereo in doubt) [Example 1137, 4-chloro-N-(2,5-dichlorophenyl)-N-[4-[[(1,1-dimethylethyl)carbonyl]amino]-1-methylbutyl]benzenesulfonamide] | – | pIC50 [3]: 6.30 to 7.00
23 | CC([C@@H]1CCCN1C(=O)OC(C)(C)C)N(c1cc(Cl)ccc1Cl)S(=O)(=O)c1ccc(Cl)cc1 (stereo in doubt) [Example 1255, 4-chloro-N-(2,5-dichlorophenyl)-N-[1-(S)-[1-[(1,1-dimethylethoxy)carbonyl]pyrrolidin-2-yl]ethyl]benzenesulfonamide] | – | pIC50 [3]: < 6.30
24 | CC(C)(C)[Si](C)(C)OCCCCCO [Example 1, (S)-5-[[dimethyl(1,1-dimethylethyl)silyl]oxy]-1-pentanol] | ≥ 7.60 | –
25 | O=[N+]([O-])c1cc(Cl)ccc1COC1CCCCO1 (centres unmarked) [Example 2, 4-Chloro-2-nitro-1-[[(tetrahydro-2H-pyran-2-yl)oxy]methyl]benzene] | ≥ 7.60 | –
26 | Nc1cc(Cl)ccc1COC1CCCCO1 (centres unmarked) [Example 3, 5-Chloro-2-[[(tetrahydro-2H-pyran-2-yl)oxy]methyl]benzenamine] | ≥ 7.60 | –
27 | CC(=O)OCc1ccc(Cl)cc1N([C@H](C)CCCS(=O)(=O)O)S(=O)(=O)c1ccc(Cl)cc1 [Example 11] | ≥ 7.60 | –
28 | C[C@H](CCCS(=O)(=O)Cl)N(c1cc(Cl)ccc1CO)S(=O)(=O)c1ccc(Cl)cc1 [Example 12] | ≥ 7.60 | –
29 | C[C@H](CCCS(=O)(=O)Cl)N(c1cc(Cl)ccc1Cl)S(=O)(=O)c1ccc(Cl)cc1 [Example 18] | ≥ 7.60 | –
30 | C[C@H](O)CO[Si](C)(C)C(C)(C)C [Example 21] | ≥ 7.60 | –
31 | C[C@H](CCNc1c(NCC[C@@H](C)N(c2cc(F)ccc2F)S(=O)(=O)c2ccc(Cl)cc2)c(=O)c1=O)N(c1cc(F)ccc1F)S(=O)(=O)c1ccc(Cl)cc1 [Example 132, 4-Chloro-N-(2,5-difluorophenyl)-N-[3-[2-[4-chloro-N-(2,5-difluorophenyl)-N-[(3-amino)-1(R)-methylpropyl]benzenesulfonamide]-3,4-dioxo-1-cyclobutenyl]amine-1(R)-methylpropyl]benzenesulfonamide] | ≥ 7.60 | –
32 | C=C(C)C(=O)CCCc1cc(F)ccc1[C@@H](C)N(c1cc(F)ccc1F)S(=O)(=O)c1ccc(Cl)cc1 [Example 207, 4-chloro-N-(2,5-difluorophenyl)-N-{(1R)-1-[4-fluoro-2-(5-methyl-4-oxo-5-hexenyl)phenyl]ethyl}benzenesulfonamide] | – | pIC50 [5]: 7.30 to 7.60
33 | CCN(CC)C(=O)CCCc1cc(F)ccc1[C@@H](C)N(c1cc(F)ccc1F)S(=O)(=O)c1ccc(Cl)cc1 [Example 223, 4-[2-((1R)-1-{[(4-chlorophenyl)sulfonyl]-2,5-difluoroanilino}ethyl)-5-fluorophenyl]-N,N-diethylbutanamide] | – | pIC50 [5]: 7.30 to 7.60
34 | O=S(=O)(c1ccc(Cl)cc1)N(Cc1cc(Cl)ccc1OCCCN1CCCCC1)c1ccccc1 [Example 230, 4-Chloro-N-{5-chloro-2-[3-(1-piperidinyl)propoxy]benzyl}-N-phenylbenzenesulfonamide Hydrochloride] | 7.30 to 7.60 | –
35 | O=S(=O)(c1ccc(Cl)cc1)N(Cc1cc(F)ccc1OCCCN1CCCCC1)c1cc(F)ccc1F [Example 231, 4-Chloro-N-(2,5-difluorophenyl)-N-{5-fluoro-2-[3-(1-piperidinyl)propoxy]benzyl}benzenesulfonamide Hydrochloride] | – | pIC50 (read-out: ACTIVITY (inhibitory concentration IC50, inhibition of amyloid β production)): 7.30 to 7.60
